Patent US8222414B2, “Indole compounds as an inhibitor of cellular necrosis” (LG Life Sciences Ltd., priority 2007, dated 2012)

System: primary hepatocytes isolated from rats
Experiment: Cell protective effects against doxorubicin in hepatocytes (WST-1 cell viability)
Type: cell-based
Conditions: primary rat hepatocytes pretreated with compound for 30 min, then doxorubicin, viability by WST-1 after 24-48 h
Experimental: Various endogenous/exogenous attacks on the cells trigger the mechanisms of cell death which is broadly classified into two types, i.e. apoptosis or necrosis. Using these cell death mechanisms, in the present experimental example, primacy hepatocytes isolated from rats were treated with drugs which were clinically shown to result in serious side-effects of hepatocyte toxicity or various chemicals which derive cell death, and the compounds synthesized in the Examples were estimated for their hepatocyte protective effects, after 24-48 h. The substances used to derive hepatocyte death include CCl4, ActD, H2O2, doxorubicin, anti-Fas Ab/Actinomycin D, acetaminophen, EtOH, CdCl2, palmitate, stearate, cyclophosphamide, terfenadine, diclofenac, simvastatin, and adefovir. Primary hepatocytes were isolated using the method of Seglen P O (Experimental Cell Research 74 (1972) pp 450-454). Briefly, hepatocytes were isolated according to the two-step collagenase perfusion method, and dead cells were removed by low speed (500 rpm) centrifugation for 10 min using percoll gradient (Kreamer B L etc, In Vitro Cellular & Developmental Biology 22 (1986) pp 201-211). During this step, the viability of cells was maintained 90% or above. The cells were suspended in HepatoZYME media (Gibco BRL), and the number of cells was counted. 1.5×10^4 cells in 100 μl were placed into the collagen-coated 96-well plate (BD biocoat), and adhered on the bottom for 3-4 h.
In order to assess the hepatocyte protective effect, above adhered cells were pretreated with the Example compounds for 30 min. At this time, the concentration of the Example compounds were serially diluted by 2-fold or 3-fold over 5 steps starting from 30 uM, 10 uM or 1 uM depending on the experiments, and the final concentration of DMSO was adjusted to 0.2%. 30 min after the treatment by compounds, cells were treated by the substances deriving hepatocyte death or hepatotoxic drugs at the concentrations indicated in Table 1. After 24-48 h, the viability of cells was determined to estimate the hepatocyte protective effects. The viability of cells was determined using WST-1 (MK-400, […]) method by the absorbance at 440 nm. Hepatocyte protective effects of the Example compounds were represented by “EC50” which was calculated from measured values. “EC50” herein means the concentration of the compound at which 50% of maximum protective effect is observed in the experiment.

SMILES	EC50 (Hepatocyte) [nM]	EC50 [nM]
CN(C)Cc1cc(NC2CCCC2)c2[nH]c(C3=N[C@H](CO)CS3)cc2c1 [Example 34, [(R)-2-(5-(dimethylamino)methyl-7-cyclopentylamino-1H-indol-2-yl)-4,5-dihydro-thiazol-4-yl]-methanol]	5580	
O=C1c2ccccc2C(=O)N1Cc1cc(NC2CCCC2)c2[nH]c(C3=N[C@H](CO)CS3)cc2c1 [Example 64, [(R)-2-(5-(isoindol-1,3-dion-2-yl)methyl-7-cyclopentylamino-1H-indol-2-yl)-4,5-dihydro-thiazol-4-yl]-methanol]	540	
O=C(O)C[C@H]1CSC(c2cc3cccc(NCC4CCOCC4)c3[nH]2)=N1 [Example 12, [(S)-2-(7-(tetrahydropyran-4-yl)methylamino-1H-indol-2-yl)-4,5-dihydro-thiazol-4-yl]-acetic acid]	3250	
Cc1cc(NC2CCC(=O)CC2)c2[nH]c(C3=N[C@H](CC(=O)O)CS3)cc2c1 [Example 135, {(R)-2-[5-methyl-7-(4-oxo-cyclohexylamino)-1H-indol-2-yl]-4,5-dihydro-thiazol-4-yl}acetic acid]	1260	
CCOC(=O)CC[C@@H]1CSC(c2cc3cc(F)cc(NC4CCCC4)c3[nH]2)=N1 [Example 108, 3-[(R)-2-(5-fluoro-7-cyclopentylamino-1H-indol-2-yl)-4,5-dihydro-thiazol-4-yl]-propionic acid ethyl ester]	< 500	
CC1SC(c2cc3cccc(NCC4CCOCC4)c3[nH]2)=N[C@H]1C(O)C1CCCN1 (stereo partly drawn) [Example 241, (5-Methyl-[(S)-2-(7-(tetrahydropyran-4-yl)methylamino-1H-indol-2-yl)-4,5-dihydro-thiazol-4-yl])-pyrrolidin-2-yl-methanol]	210	
Cc1cc(NCC2CC2)c2[nH]c(C3=N[C@@H](CC(=O)O)CS3)cc2c1 [Example 21, [(S)-2-(5-methyl-7-cyclopropylmethylamino-1H-indol-2-yl)-4,5-dihydro-thiazol-4-yl]-acetic acid]	300	
O=C(CO)N1CCN(CC[C@H]2CSC(c3cc4cc(Oc5ccccc5)cc(NC5CCCC5)c4[nH]3)=N2)CC1 [Example 229]		250
c1cc(NC2CCCC2)c2[nH]c(C3=N[C@H](CN4CCCC4)CS3)cc2c1 [Example 158, Cyclopentyl-[2-((R)-4-pyrrolidin-1-ylmethyl-4,5-dihydro-thiazol-2-yl)-1H-indol-7-yl]-amine]	910	
c1ccc(Oc2cc(NC3CCCC3)c3[nH]c(C4=N[C@@H](CCN5CCN(c6ccccn6)CC5)CS4)cc3c2)cc1 [Example 235, (5-Phenoxy-2-{(S)-4-[(pyridin-2-yl)piperazine-ethyl]-4,5-dihydro-thiazol-2-yl}-1H-indol-7-yl)-cyclopentyl-amine]		> 540
CCOc1cc(NC2CCCC2)c2[nH]c(C3=N[C@@H](CCO)CS3)cc2c1 [Example 48, [(S)-2-(5-ethoxy-7-cyclopentylamino-1H-indol-2-yl)-4,5-dihydro-thiazol-4-yl]-ethanol]		200
CCOc1cc(NC2CCCC2)c2[nH]c(C3=N[C@H](CCC(=O)O)CS3)cc2c1 [Example 115, 3-[(R)-2-(5-ethoxy-7-cyclopentylamino-1H-indol-2-yl)-4,5-dihydro-thiazol-4-yl]-propionic acid]	< 1000	
OC[C@@H]1CSC(c2cc3cccc(NC4CCOCC4)c3[nH]2)=N1 [Example 51, [(R)-2-(7-(tetrahydropyran-4-yl)amino-1H-indol-2-yl)-4,5-dihydro-thiazol-4-yl]-methanol]	600	
OCc1csc(-c2cc3cccc(NC4CCCC4)c3[nH]2)n1 [Example 133, [2-(7-Cyclopentylamino-1H-indol-2-yl)-thiazol-4-yl]-methanol]	310	
O=C(O)C[C@@H]1CSC(c2cc3cc(Oc4cccnc4)cc(NC4CCCC4)c3[nH]2)=N1 [Example 88, [(R)-2-(5-(pyridin-3-yl)oxy-7-cyclopentylamino-1H-indol-2-yl)-4,5-dihydro-thiazol-4-yl]-acetic acid]	1870	
CC(=O)N1CC[C@@H](Nc2cccc3cc(C4=N[C@H](CO)CS4)[nH]c23)C1 [Example 43, {(R)-2-[7-((3R)-1-acetylpyrrolidin-3-yl)amino-1H-indol-2-yl]-4,5-dihydro-1,3-thiazol-4-yl}-methanol]	1000 to 10000	
CC(=O)N1CCN(CC[C@H]2CSC(c3cc4cc(Oc5ccccc5)cc(NC5CCCC5)c4[nH]3)=N2)CC1 [Example 239]		830

SMILES	EC50 (Hepatocyte) [nM]	EC50 [nM]
CC(=O)N1CCN(CC[C@H]2CSC(c3cc4cc(Cl)cc(NC5CCCC5)c4[nH]3)=N2)CC1 [Example 178, 1-(4-{2-[(S)-2-(7-cyclopentylamino-5-chloro-1H-indol-2-yl)-4,5-dihydro-thiazol-4-yl]-ethyl}-piperazin-1-yl)-ethanone]	230	
Cc1cc(NCC2CCCC2)c2[nH]c(C3=N[C@@H](CC(=O)O)CS3)cc2c1 [Example 23, [(S)-2-(5-methyl-7-cyclopentylmethylamino-1H-indol-2-yl)-4,5-dihydro-thiazol-4-yl]-acetic acid]	140	
Cc1cc(NC2CCN(C(=O)C(F)(F)F)CC2)c2[nH]c(C3=N[C@@H](CC(=O)O)CS3)cc2c1 [Example 9, [(S)-2-(5-methyl-7-(1-trifluoroacetylpiperidin-4-yl)amino-1H-indol-2-yl)-4,5-dihydro-thiazol-4-yl]-acetic acid]	> 2000	
FCc1nnc2n1CCN(CC[C@H]1CSC(c3cc4cc(Oc5ccccc5)cc(NC5CCCC5)c4[nH]3)=N1)C2 [Example 232, Cyclopentyl-(5-phenoxy-2-{(S)-4-[2-(3-fluoromethyl-5,6-dihydro-8H-[1,2,4]triazolo[4,3-a]pyrazin-7-yl)-ethyl]-4,5-dihydro-thiazol-2-yl}-1H-indol-7-yl)-amine]	240	
c1cc(NC2CCNCC2)c2[nH]c(C3=NCCS3)cc2c1 [Example 7, [2-(4,5-Dihydro-thiazol-2-yl)-1H-indol-7-yl]-piperidin-4-yl-amine]	1170	
O=C(O)CC[C@@H]1CSC(c2cc3cc(Cl)cc(NC4CCCC4)c3[nH]2)=N1 [Example 101, 3-[(R)-2-(5-chloro-7-cyclopentylamino-1H-indol-2-yl)-4,5-dihydro-thiazol-4-yl]-propionic acid]	1000 to 10000	
c1ccc(Oc2cc(NC3CCCC3)c3[nH]c(C4=N[C@@H](CCN5CCNCC5)CS4)cc3c2)cc1 [Example 230, (5-Phenoxy-2-{(S)-4-[(piperazin-1-yl)-ethyl]-4,5-dihydro-thiazol-2-yl}-1H-indol-7-yl)-cyclopentyl-amine]	> 320	
OCc1cc(NC2CCCC2)c2[nH]c(C3=N[C@H](CO)CS3)cc2c1 [Example 6, (R)-2-[7-cyclopentylamino-5-(hydroxymethyl)-1H-indol-2-yl]-4,5-dihydro-thiazol-4-yl-methanol]	4930	
CCCOc1cc(NC2CCCC2)c2[nH]c(C3=N[C@H](CC(=O)O)CS3)cc2c1 [Example 84, [(R)-2-(5-propyloxy-7-cyclopentylamino-1H-indol-2-yl)-4,5-dihydro-thiazol-4-yl]-acetic acid]	1600	
CS(=O)(=O)CC[C@@H]1CSC(c2cc3cccc(NC4CCOCC4)c3[nH]2)=N1 [Example 218]		260
Cc1cc(NC2CCOC2)c2[nH]c(C3=N[C@@H](CC(=O)O)CS3)cc2c1 (stereo partly drawn) [Example 20, [(S)-2-(5-methyl-7-(tetrahydrofuran-3-yl)amino-1H-indol-2-yl)-4,5-dihydro-thiazol-4-yl]-acetic acid]	5770	
COC(=O)c1csc(-c2cc3cccc(NC4CCCC4)c3[nH]2)n1 [Example 134, [2-(7-Cyclopentylamino-1H-indol-2-yl)-thiazol-4-yl]-carboxylic acid methyl ester]	510	
c1ccc(Oc2cc(NC3CCCC3)c3[nH]c(C4=N[C@@H](CCN5CCCC5)CS4)cc3c2)cc1 [Example 249, (5-Phenoxy-2-{(S)-4-[pyrrolidin-1-yl-ethyl]-4,5-dihydro-thiazol-2-yl}-1H-indol-7-yl)-cyclopentyl-amine]	110	
O=C(O)CC[C@@H]1CSC(c2cc3cc(OC(F)(F)F)cc(NC4CCCC4)c3[nH]2)=N1 [Example 117, 3-[(R)-2-(5-trifluoromethoxy-7-cyclopentylamino-1H-indol-2-yl)-4,5-dihydro-thiazol-4-yl]-propionic acid]	< 500	
NC[C@@H]1CSC(c2cc3cccc(NC4CCCC4)c3[nH]2)=N1 [Example 173, [2-((R)-4-aminomethyl-4,5-dihydro-thiazol-2-yl)-1H-indol-7-yl]-cyclopentyl-amine]	1980	
O=C(O)C[C@H]1COC(c2cc3cc(Cl)cc(NCC4CCOCC4)c3[nH]2)=N1 [Example 122, [(S)-2-(5-chloro-7-(tetrahydropyran-4-yl)methylamino-1H-indol-2-yl)-4,5-dihydro-oxazol-4-yl]-acetic acid]	960	
